# Source: ChEMBL document CHEMBL1201862, “PubChem BioAssay data set” (2004)
# Activity calls are given as the source filed them.
# Experiments:
# [1] = HEp-2 cell cytotoxicity, dose response, cytotoxicity control for RSV inhibitor project, HTS (AID 2410); format: functional; conditions: human respiratory syncytial virus
# Protein skinhead-1 = target: T1, Protein skinhead-1 (Caenorhabditis elegans, UniProt P34707); format: functional
# T1 sequence (P34707 whole entry): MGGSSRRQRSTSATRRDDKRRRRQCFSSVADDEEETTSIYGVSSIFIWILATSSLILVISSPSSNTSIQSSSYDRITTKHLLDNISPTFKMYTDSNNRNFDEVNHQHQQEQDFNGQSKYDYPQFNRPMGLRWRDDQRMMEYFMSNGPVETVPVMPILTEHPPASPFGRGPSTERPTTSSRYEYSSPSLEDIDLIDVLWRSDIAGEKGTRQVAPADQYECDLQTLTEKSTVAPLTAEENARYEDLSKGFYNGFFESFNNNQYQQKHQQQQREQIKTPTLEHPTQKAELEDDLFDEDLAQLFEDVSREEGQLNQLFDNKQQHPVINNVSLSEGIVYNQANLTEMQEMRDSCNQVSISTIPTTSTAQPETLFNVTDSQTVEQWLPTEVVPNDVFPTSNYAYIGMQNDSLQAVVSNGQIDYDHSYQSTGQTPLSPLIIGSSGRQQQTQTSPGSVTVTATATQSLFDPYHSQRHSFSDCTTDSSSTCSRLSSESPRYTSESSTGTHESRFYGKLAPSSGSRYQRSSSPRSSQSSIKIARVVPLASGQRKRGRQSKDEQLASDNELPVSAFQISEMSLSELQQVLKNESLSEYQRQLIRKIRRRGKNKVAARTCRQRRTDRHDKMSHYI
# Cytochrome P450 2C19 = Cytochrome P450 2C19 (Homo sapiens, UniProt P33261); experiment: Cytochrome panel assay with activity outcomes. Panel member name: p450-cyp2c19 Compounds with AC50 equal or less than 10 uM are considered active; format: functional; conditions: read-out: AC50
# Cytochrome P450 2C19, sequence (P33261 whole entry): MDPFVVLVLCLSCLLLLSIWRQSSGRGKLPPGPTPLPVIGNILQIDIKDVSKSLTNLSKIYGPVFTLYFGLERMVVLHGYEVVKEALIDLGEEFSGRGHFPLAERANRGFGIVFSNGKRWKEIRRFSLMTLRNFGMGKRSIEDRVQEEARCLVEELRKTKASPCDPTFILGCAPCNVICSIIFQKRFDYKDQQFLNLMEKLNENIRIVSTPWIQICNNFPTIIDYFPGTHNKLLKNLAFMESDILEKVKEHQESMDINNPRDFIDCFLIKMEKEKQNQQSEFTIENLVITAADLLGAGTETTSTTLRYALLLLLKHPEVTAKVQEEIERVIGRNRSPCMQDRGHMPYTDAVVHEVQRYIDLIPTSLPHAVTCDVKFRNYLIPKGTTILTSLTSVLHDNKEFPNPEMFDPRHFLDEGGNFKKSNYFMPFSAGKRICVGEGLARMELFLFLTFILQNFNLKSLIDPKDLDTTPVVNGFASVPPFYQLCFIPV
# Cytochrome P450 1A2 = target: T2, Cytochrome P450 1A2 (Homo sapiens, UniProt P05177);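 also: PubChem cytochrome P450 panel assay, CYP1A2 panel member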
# T2 sequence (P05177 whole entry): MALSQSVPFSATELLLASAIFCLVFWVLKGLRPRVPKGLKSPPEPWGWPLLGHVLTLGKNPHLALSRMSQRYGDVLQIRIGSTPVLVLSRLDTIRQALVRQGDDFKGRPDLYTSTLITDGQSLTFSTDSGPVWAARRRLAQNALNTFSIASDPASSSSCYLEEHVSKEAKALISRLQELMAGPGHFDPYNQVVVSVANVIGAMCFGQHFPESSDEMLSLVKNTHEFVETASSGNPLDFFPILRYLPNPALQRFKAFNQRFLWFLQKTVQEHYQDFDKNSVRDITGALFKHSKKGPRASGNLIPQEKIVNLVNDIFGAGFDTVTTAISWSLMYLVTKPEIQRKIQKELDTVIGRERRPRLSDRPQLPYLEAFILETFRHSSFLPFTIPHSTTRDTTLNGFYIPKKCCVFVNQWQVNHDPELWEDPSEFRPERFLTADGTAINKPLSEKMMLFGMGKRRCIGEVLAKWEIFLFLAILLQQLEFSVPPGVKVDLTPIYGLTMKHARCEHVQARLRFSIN
# Cytochrome P450 2C9 = Cytochrome P450 2C9 (Homo sapiens, UniProt P11712)
# Cytochrome P450 2C9, sequence (P11712 whole entry): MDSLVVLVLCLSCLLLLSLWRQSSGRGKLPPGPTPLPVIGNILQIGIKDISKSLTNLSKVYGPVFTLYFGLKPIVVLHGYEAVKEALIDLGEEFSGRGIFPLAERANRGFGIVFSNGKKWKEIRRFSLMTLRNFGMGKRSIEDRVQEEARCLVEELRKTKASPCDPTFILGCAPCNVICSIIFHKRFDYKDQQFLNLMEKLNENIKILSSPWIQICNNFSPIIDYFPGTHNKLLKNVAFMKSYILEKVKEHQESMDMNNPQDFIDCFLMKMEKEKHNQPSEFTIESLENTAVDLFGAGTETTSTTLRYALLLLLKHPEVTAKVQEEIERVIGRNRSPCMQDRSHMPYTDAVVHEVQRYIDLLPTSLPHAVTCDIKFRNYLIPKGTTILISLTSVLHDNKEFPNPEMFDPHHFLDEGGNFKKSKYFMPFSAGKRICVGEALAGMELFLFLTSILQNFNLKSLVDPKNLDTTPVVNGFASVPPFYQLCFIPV
# [2] = target: T3, Rac GTPase-activating protein 1 (Homo sapiens, UniProt Q9H0H5); experiment: MgcRacGAP GTPase-activating activity inhibitors, confirmation, biochemical, ADP Hunter fluorescence, primary and confirmatory (AID 624330); format: functional
# T3 sequence (Q9H0H5 whole entry): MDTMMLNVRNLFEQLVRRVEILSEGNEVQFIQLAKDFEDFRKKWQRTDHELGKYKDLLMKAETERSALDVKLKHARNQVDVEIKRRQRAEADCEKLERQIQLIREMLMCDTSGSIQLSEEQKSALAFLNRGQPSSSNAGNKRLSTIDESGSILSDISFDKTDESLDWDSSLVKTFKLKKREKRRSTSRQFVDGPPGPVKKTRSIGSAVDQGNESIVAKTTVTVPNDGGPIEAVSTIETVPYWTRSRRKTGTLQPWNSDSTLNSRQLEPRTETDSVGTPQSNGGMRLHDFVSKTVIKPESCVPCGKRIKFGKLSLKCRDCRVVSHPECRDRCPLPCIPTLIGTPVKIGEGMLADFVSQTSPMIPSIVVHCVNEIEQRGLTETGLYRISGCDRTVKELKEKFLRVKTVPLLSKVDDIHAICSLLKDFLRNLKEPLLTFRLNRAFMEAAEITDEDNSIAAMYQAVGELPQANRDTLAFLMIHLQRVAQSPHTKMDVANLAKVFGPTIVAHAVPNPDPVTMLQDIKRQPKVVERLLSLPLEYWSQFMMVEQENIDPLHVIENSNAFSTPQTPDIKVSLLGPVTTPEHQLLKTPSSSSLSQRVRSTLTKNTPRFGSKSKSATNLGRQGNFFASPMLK
# [3] = test system: Streptococcus sp. 'group A'; experiment: growth inhibition of control SK(-) GAS strain, dose response, counter-screen for streptokinase expression inhibitor project, luminescence, kanamycin, BacTiterGlo, confirmation (AID 1900); format: functional, organism-based
# Streptokinase A = target: T4, Streptokinase A (Streptococcus pyogenes serotype M1, UniProt P10520); experiment: S. pyogenes streptokinase expression inhibitors, potency, dose response, plasminogen activation absorbance, OD405 (AID 1914); format: functional, Streptococcus pyogenes M1 GAS;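 also: secreted streptokinase activity via plasminogen activation per viability signal from cell pellet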
# T4 sequence (P10520 whole entry): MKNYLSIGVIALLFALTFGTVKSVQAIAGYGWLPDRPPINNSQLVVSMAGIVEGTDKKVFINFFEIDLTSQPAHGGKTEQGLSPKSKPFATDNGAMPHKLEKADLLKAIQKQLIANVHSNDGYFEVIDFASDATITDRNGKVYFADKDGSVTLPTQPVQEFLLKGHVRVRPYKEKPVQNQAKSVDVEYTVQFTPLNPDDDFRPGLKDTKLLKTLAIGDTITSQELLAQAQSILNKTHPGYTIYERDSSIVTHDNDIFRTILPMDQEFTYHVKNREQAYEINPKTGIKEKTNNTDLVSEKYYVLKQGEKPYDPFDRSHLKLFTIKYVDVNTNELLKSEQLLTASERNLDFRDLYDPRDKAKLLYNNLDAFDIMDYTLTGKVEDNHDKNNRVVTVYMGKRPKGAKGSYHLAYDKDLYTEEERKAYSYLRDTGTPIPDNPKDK
# Streptococcus = experiment: Group A Streptococcus viability loss, dose response, counter-screen for streptokinase expression inhibitor project, luminescence, BacTiterGlo (AID 1915); format: functional, organism-based;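 also: potency for reduction of bacterial viability or growth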
# [4] = Luminescence Cell-Based Dose Response HTS to Identify Activators of Luciferase Translation or Activity in H4 […] Cells. [Related pubchem assays: 1829 (Project Summary), 1814 (Primary HTS)]; format: functional
# H4 = experiment: Luminescence Cell-Based Dose Response HTS to Identify Activators of 5'UTR Stem-Loop Driven Prion Protein mRNA Translation in H4 Neuroglioblastoma Cells. [Related pubchem assays: 1829 (Project Summary), 1814 (Primary HTS)]; format: functional; conditions: Homo sapiens
# Cytochrome P450 3A4 = Cytochrome P450 3A4 (Homo sapiens, UniProt P08684);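 also: CYP3A4 tested as one member of a cytochrome P450 panel screen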
# Cytochrome P450 3A4, sequence (P08684 whole entry): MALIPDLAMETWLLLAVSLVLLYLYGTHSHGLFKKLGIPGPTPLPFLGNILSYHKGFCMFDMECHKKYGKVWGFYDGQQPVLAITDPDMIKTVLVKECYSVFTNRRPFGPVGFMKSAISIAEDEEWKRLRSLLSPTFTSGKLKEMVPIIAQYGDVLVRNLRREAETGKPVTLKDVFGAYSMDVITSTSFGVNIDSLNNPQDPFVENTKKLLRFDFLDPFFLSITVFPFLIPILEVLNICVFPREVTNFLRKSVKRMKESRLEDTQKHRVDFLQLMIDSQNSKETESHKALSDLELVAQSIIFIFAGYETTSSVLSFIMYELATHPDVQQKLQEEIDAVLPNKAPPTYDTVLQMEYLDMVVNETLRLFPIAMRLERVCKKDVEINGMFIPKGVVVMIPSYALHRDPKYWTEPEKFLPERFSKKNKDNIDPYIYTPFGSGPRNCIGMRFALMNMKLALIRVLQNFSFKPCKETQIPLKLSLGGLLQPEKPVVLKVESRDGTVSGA
# [5] = target: Luciferin 4-monooxygenase (Photinus pyralis, UniProt P08659); experiment: firefly luciferase enzyme inhibitors, dose response, biochemical, luminescence (AID 1891)
# Luciferin 4-monooxygenase, sequence (P08659 whole entry): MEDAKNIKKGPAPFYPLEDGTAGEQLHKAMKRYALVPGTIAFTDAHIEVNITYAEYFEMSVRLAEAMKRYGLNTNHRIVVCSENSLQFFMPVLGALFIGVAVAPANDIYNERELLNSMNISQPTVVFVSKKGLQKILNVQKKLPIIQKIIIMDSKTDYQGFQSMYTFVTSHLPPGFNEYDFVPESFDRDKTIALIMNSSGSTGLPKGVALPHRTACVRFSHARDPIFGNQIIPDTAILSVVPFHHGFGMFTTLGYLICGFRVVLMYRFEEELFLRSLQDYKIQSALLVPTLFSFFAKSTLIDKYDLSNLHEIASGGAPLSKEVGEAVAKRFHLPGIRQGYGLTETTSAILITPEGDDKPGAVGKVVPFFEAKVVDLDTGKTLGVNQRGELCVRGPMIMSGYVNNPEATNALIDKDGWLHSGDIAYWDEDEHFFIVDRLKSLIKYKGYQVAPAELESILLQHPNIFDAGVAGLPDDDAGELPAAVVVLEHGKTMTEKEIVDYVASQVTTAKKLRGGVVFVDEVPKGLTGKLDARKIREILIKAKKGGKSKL
# [6] = Luminescence Cell-Based Dose Confirmation HTS to Identify Inhibitors of Platelet Dense Granule Release. [Related pubchem assays: 1663 (Primary HTS), 1678 (Summary of Project)]; format: functional
smiles,measurement,setting,value
CC(=O)c1ccc(NCC2COc3ccccc3O2)c([N+](=O)[O-])c1 (stereo not drawn),CC50,[1],> 50 µM (active)
Cc1[nH]c2ccccc2c1SCc1ccccc1,IC50,Protein skinhead-1,42.6 µM (active)
O=C(c1ccncc1)N1CCC2(CC1)CCN(C(c1ccccc1)c1ccccc1)CC2,AC50,Cytochrome P450 2C19,39.8 µM (inconclusive)
same,AC50,Cytochrome P450 1A2,12.6 µM (inconclusive)
same,AC50,Cytochrome P450 2C9,12.6 µM (inconclusive)
CCCS(=O)(=O)N1CCN(C2CCC(C)CC2)CC1 (stereo not drawn),IC50,[2],232 µM (active)
O=C(Nc1ccc2c(c1)CCC2)c1ccc(Cl)nc1,CC50,[1],36.7 µM (active)
Cc1ccc2c(c1)CCCN2C(=O)CSc1ccccc1,CC50,[1],47.2 µM (active)
COc1ccc(C2CC(c3ccccc3)=NN2C(=O)c2cccs2)cc1 (stereo not drawn),EC50,[3],4.88 µM (active)
same,EC50,Streptokinase A,> 150 µM (not active)
same,EC50,Streptococcus,12.4 µM (active)
same,IC50,Protein skinhead-1,> 100 µM (inactive)
COc1ccc(NCCC(O)c2ccc(Cl)cc2)cc1 (stereo not drawn),IC50,[2],29.1 µM (active)
CCOC(=O)C1CCCN(C2=NC(=O)/C(=C/c3ccc(O)c(OCC)c3)S2)C1 (stereo not drawn),IC50,[2],26.5 µM (active)
O=S(=O)(c1ccccc1C(F)(F)F)N1CCC(c2nc(O)c3nnn(Cc4cccc(F)c4)c3n2)CC1,CC50,[1],32.2 µM (active)
O=C1C=C(c2ccc3ncccc3c2)C[C@@H](c2ccc(F)cc2)C1,CC50,[1],30 µM (active)
COc1ccc2nc(-c3ccc(Cl)cc3)cc(C(=O)O)c2c1,CC50,[1],19.9 µM (active)
CC(=O)N1CCN(c2ccc(NCc3ccc(C(C)C)cc3)cc2)CC1,IC50,Protein skinhead-1,> 100 µM (inactive)
same,IC50,[2],10.4 µM (active)
Fc1ccc(N2CCN(c3cnc4ccccc4n3)CC2)cc1,EC50,[4],244 nM (active)
same,EC50,H4,12.8 µM (active)
same,IC50,Protein skinhead-1,72.8 µM (inactive)
CSCC[C@H](N)C(=O)N1CCC(C(=O)N[C@@H](Cc2c[nH]c3ccccc23)C(=O)O)CC1,IC50,Protein skinhead-1,> 100 µM (inactive)
CC(C)C(c1nnnn1Cc1ccco1)N1CCN(C2CCCC2)CC1 (stereo not drawn),IC50,Protein skinhead-1,> 100 µM (inactive)
O=C(NCc1ccco1)c1sc2cc(Cl)ccc2c1Cl,IC50,Protein skinhead-1,> 100 µM (inactive)
CCc1ccc(Nc2oc(C)cc(=O)c2C(C)=O)cc1,IC50,Protein skinhead-1,> 100 µM (inactive)
Cc1ccc(C2(C)NC(=O)N(CC(=O)Nc3cc(C)on3)C2=O)cc1 (stereo not drawn),AC50,Cytochrome P450 3A4,25.1 µM (inconclusive)
same,AC50,Cytochrome P450 2C9,14.1 µM (inconclusive)
CN1/C(=C\C(=O)Nc2cccc(Cl)c2)C(C)(C)c2ccccc21,IC50,Protein skinhead-1,> 100 µM (inactive)
COc1ccccc1C(=O)Nc1ccc2c(c1)nc(CCNC(=O)c1ccccc1)n2C,IC50,Protein skinhead-1,> 100 µM (inactive)
Nc1ccc(/N=N\c2ccc(-c3ccc(O)cc3)cc2)c2ccc(S(=O)(=O)O)cc12,AC50,Cytochrome P450 2C19,6.31 µM (inconclusive)
same,AC50,Cytochrome P450 2C9,5.01 µM (inconclusive)
O=c1cc(CN2CCOCC2)c2ccc(O)c(O)c2o1,IC50,[2],82.7 µM (active)
CCCCCOC(=O)c1ccc(NC(=O)c2ccco2)cc1,IC50,Protein skinhead-1,> 100 µM (inactive)
Cc1ccc(NCCC(=O)c2ccc(Cl)cc2)cc1,AC50,Cytochrome P450 3A4,12.6 µM (inconclusive)
same,AC50,Cytochrome P450 2C9,3.98 µM (inconclusive)
CC1=N/C(=C\c2ccc([N+](=O)[O-])cc2)C(=O)N1c1ccc(Br)c(C)c1,AC50,Cytochrome P450 1A2,5.62 µM (inconclusive)
same,AC50,Cytochrome P450 2C9,7.94 µM (inconclusive)
Cn1c(=O)c(-c2cc(F)cc(F)c2)nc2cnc(N3CCNCC3)nc21,AC50,Cytochrome P450 3A4,31.6 µM (inconclusive)
same,AC50,Cytochrome P450 2C9,25.1 µM (inconclusive)
O=c1cnc2cncnc2n1Cc1ccccc1,AC50,Cytochrome P450 2C19,39.8 µM (inconclusive)
same,AC50,Cytochrome P450 3A4,20 µM (inconclusive)
same,AC50,Cytochrome P450 2C9,31.6 µM (inconclusive)
CC(C)CCNC(=O)NC(=O)COc1c(F)c(F)cc(F)c1F,IC50,Protein skinhead-1,> 100 µM (inactive)
O=C(c1cccc(F)c1)N1CCN(C2CCCCC2)CC1,IC50,[2],116 µM (active)
CC1Cc2ccccc2N1S(=O)(=O)c1cccc(C(=O)NC2CC2)c1 (stereo not drawn),CC50,[1],> 50 µM (active)
O=S(=O)(Cc1ccc(Cl)cc1)Oc1ccc(Cl)cc1,IC50,Protein skinhead-1,> 100 µM (inactive)
COc1ccc(NS(=O)(=O)c2cccc(C(=O)NN=Cc3ccc(O)c(OC)c3)c2)cc1,IC50,[2],79.4 µM (active)
Cn1nccc1C(=O)N1CCC(Cc2ccccc2)CC1,IC50,Protein skinhead-1,> 100 µM (inactive)
CCCCNc1cc(=O)oc2ccccc12,AC50,Cytochrome P450 3A4,17.8 µM (inconclusive)
same,AC50,Cytochrome P450 2C9,6.31 µM (inconclusive)
C/C(=N\NC(=O)C1CC1)c1ccc(Cl)c(Cl)c1,CC50,[1],> 50 µM (active)
COc1cc(/C=N/NC(=O)/C(=C/c2ccccc2)CCO)ccc1O,EC50,[5],> 112 µM (not active)
same,EC50,[6],11.1 µM (active)
same,IC50,[2],35.7 µM (active)
CCOC(=O)Nc1ccc(NCc2ccc(F)cc2)nc1N [FLUPIRTINE],AC50,Cytochrome P450 2C19,25.1 µM (inconclusive)
same,AC50,Cytochrome P450 1A2,39.8 µM (inconclusive)
same,AC50,Cytochrome P450 2C9,25.1 µM (inconclusive)
